Experimental data reported in US20090291971A1, “HETEROARYL ETHERS AND PROCESSES FOR THEIR PREPARATION” (Wyeth, priority 2007, published 2009).

Assays:
Format in all cases: biochemical
PI3K alpha = PI3K alpha (Homo sapiens, UniProt P42336); assay: PI3 Kinase Assay (PI3K alpha)
Procedure: (§1) PI3-Kinase reactions were performed in […], pH 7, […], and 25 μM ATP, with diC8-PI(4,5)P2 (Echelon, Salt Lake City Utah) as substrate. Nunc 384 well black polypropylene fluorescent plates were used for PI3K assays. Reactions were quenched by the addition of EDTA to a final concentration of […]. Final reaction volumes were […]. For evaluation of PI 3-K inhibitors, 5 ng of enzyme and 2.5 μM of substrate was used per […] reaction volume, and inhibitor concentrations ranged from 100 μM to […]; the final level of DMSO in reactions never exceeded 2%. Reactions were allowed to proceed for one hour at 25° C. After 1 hour, GST-tagged GRP1 (general receptor for phosphoinositides) PH domain fusion protein was added to a final concentration of 100 nM, and BODIPY-TMRI(1,3,4,5)P4 (Echelon) was also added to a final concentration of 5 nM. Final sample volumes were 25 μl with a final DMSO concentration of 0.8%. Assay Plates were read on Perkin-Elmer Envision plate readers with appropriate filters for Tamra [BODIPY-TMRI(1,3,4,5)P4]. Data obtained were used to calculate enzymatic activity and enzyme inhibition by inhibitor compounds.

PI3K gamma = PI3K gamma (Homo sapiens, UniProt P48736); assay: PI3 Kinase Assay (PI3K gamma); conditions: 1 h
Procedure: as §1

Flag-IKKβ = biological target: T1, Flag-IKKβ (Homo sapiens, UniProt O14920); assay: IKK Kinase Assay (LANCE)
T1 construct: made in house; host or cells: SF9 insect cells (baculovirus)
T1 sequence (O14920 1-756): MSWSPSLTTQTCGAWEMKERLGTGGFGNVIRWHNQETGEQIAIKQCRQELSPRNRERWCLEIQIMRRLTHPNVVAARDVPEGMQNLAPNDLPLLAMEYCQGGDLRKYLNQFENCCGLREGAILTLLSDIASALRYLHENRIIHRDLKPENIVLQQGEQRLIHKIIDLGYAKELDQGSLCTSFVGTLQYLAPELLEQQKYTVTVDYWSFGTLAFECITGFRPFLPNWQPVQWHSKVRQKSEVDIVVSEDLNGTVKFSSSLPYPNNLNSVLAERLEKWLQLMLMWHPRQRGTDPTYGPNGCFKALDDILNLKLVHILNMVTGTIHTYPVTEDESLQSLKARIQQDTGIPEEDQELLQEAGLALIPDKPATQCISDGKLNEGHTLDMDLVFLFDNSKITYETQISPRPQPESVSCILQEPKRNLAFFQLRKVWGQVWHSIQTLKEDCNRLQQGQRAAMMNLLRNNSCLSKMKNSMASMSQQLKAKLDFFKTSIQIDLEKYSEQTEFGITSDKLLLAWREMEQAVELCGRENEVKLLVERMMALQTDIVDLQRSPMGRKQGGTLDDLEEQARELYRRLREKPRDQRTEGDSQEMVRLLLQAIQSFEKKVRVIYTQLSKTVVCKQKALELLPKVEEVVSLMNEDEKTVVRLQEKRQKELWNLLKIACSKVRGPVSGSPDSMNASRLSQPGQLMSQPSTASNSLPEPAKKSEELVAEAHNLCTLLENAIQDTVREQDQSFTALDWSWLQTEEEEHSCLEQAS
Description: Human IKKβ cDNA is amplified by reverse transcriptase-polymerase chain reaction from human placental RNA (CLONTECH) using primers that incorporated the FLAG-epitope at the C terminus of IKKβ. FLAG-IKKβ is inserted into the baculovirus expression plasmid pFASTBAC (Life Technologies). Following the manufacturer's protocol for the BAC-TO-BAC (Life Technologies) Baculovirus Expression System, recombinant baculoviruses expressing the IKKβ enzyme are made. Briefly, 9×10^5 SF9 cells per well of a 6-well plate are transfected with one μg of miniprep bacmid DNA using the CellFECTIN™ reagent. Virus is harvested 72 hours post transfection, and a viral titer is performed, after which a high titer viral stock (2×10^8 pfu/ml) is amplified by three to four rounds of infection. […]
Purified Flag-IKKβ enzyme (2 nM final concentration) is typically used in the kinase reaction buffer described above supplemented with 0.0025% Brij solution (Sigma) to help stabilize the enzyme. […] 25 μL of 20 mM EDTA is added to terminate the reactions and then 100 μL of detection mixture [0.25 nM Europium labeled anti-phospho-IκBα (prepared by Wallac) and 0.25 μg/mL final concentration streptavidin-APC, Wallac] is added 30 minutes before reading the plates in a Wallac VICTOR plate reader. […]

[1] = biological target: T2, human PKCθ full length enzyme (Homo sapiens, UniProt Q04759); assay: PKC Theta IMAP Assay
T2 construct: human PKCθ full length enzyme; purchased Panvera P2996
Procedure: The materials used include the following: human PKCθ full length enzyme (Panvera Cat#P2996); substrate peptide: 5FAM-RFARKGSLRQKNV-OH (Molecular Devices, RP7032); ATP (Sigma Cat #A2383); DTT (Pierce, 20291); 5× kinase reaction buffer (Molecular Devices, R7209); 5× binding buffer A (Molecular Devices, R7282), 5× binding buffer B (Molecular Devices, R7209); IMAP Beads (Molecular Devices, R7284); and 384-well plates (Corning Costar, 3710).
The reaction buffer was prepared by diluting the 5× stock reaction buffer and adding DTT to obtain a concentration of 3.0 mM. The binding buffer was prepared by diluting the 5× binding buffer A. A master mix solution was prepared using a 90% dilution of the reaction buffer containing 2×ATP (12 uM) and 2× peptide (200 nm). Compounds were diluted in DMSO to 20× of the maximum concentration for the IC50 measurement. 27 μl of the master mix solution for each IC50 curve was added to the first column in a 384-well plate and 3 μl of 20× compound in DMSO was added to each well. The final concentration of compound was 2× and 10% DMSO. DMSO was added to the rest of the master mix to increase the concentration to 10%. 10 μl of the master mix containing 10% DMSO was added to the rest of the wells on the plate except the 2nd column. 20 μl was transferred from the first column to the 2nd column. […] FP was measured using Envision2100 (PerkinElmer Life Sciences). […]

human TOR (FLAG-TOR) = biological target: T3, human TOR (FLAG-TOR) (Homo sapiens, UniProt P42345); assay: mTOR Enzyme Assay (DELFIA)
T3 construct: FLAG
Procedure: The routine human TOR assays with purified enzyme were performed in 96-well plates by DELFIA format as follows. Enzymes were first diluted in kinase assay buffer (10 mM Hepes (pH 7.4), 50 mM NaCl, 50 mM β-glycerophosphate, 10 mM MnCl2, 0.5 mM DTT, 0.25 μM microcystin LR, and 100 μg/mL BSA). To each well, 12 μL of the diluted enzyme were mixed briefly with 0.5 μL test inhibitor or control vehicle dimethylsulfoxide (DMSO). The kinase reaction was initiated by adding 12.5 μL kinase assay buffer containing ATP and His6-S6K to give a final reaction volume of 25 μL containing 800 ng/mL FLAG-TOR, 100 μM ATP and 1.25 μM His6-S6K. The reaction plate was incubated for 2 hours (linear at 1-6 hours) at room temperature with gentle shaking and then terminated by adding 25 μL Stop buffer (20 mM Hepes (pH 7.4), 20 mM EDTA, 20 mM EGTA). The DELFIA detection of the phosphorylated (Thr-389) His6-S6K was performed at room temperature using a monoclonal anti-P(T389)-p70S6K antibody (1A5, Cell Signaling) labeled with Europium-N-1-ITC (Eu) (10.4 Eu per antibody, PerkinElmer). The DELFIA Assay buffer and Enhancement solution were purchased from PerkinElmer. 45 μL of the terminated kinase reaction mixture was transferred to a MaxiSorp plate (Nunc) containing 55 μL PBS. […] L of DELFIA Enhancement solution was added to each well and the plates were read in a PerkinElmer Victor model plate reader. […]

PI3K gamma, sequence (P48736 whole entry, species assumed): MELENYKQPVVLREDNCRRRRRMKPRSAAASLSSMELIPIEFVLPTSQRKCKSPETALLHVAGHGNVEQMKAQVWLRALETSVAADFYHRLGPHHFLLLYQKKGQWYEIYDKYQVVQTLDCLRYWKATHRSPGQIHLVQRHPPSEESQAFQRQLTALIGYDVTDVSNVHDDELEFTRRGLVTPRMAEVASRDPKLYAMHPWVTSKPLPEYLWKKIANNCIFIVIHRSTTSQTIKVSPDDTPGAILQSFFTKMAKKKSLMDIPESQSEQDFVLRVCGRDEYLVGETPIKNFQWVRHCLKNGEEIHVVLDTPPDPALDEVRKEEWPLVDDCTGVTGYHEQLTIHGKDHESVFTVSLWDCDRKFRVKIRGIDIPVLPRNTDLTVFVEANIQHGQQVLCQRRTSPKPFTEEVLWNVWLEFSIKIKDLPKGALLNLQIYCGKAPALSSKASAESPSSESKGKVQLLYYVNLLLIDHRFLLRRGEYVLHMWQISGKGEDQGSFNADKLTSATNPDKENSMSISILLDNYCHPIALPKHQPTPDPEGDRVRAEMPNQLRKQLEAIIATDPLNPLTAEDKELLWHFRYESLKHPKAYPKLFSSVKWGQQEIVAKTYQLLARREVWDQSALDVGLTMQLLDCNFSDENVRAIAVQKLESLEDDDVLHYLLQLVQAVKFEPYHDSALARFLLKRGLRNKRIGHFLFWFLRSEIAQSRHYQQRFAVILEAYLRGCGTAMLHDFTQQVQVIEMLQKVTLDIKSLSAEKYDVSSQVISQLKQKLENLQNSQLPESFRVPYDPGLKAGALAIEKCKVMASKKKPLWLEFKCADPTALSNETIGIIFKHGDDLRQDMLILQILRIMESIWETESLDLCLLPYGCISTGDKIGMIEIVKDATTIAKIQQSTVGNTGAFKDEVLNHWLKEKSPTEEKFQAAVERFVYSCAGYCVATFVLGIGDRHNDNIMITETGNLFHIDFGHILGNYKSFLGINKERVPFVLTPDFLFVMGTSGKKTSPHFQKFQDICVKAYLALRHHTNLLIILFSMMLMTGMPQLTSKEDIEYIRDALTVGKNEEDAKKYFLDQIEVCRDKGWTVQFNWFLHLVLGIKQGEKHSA
PI3K alpha, sequence (P42336 whole entry, species assumed, the tested form may be a part): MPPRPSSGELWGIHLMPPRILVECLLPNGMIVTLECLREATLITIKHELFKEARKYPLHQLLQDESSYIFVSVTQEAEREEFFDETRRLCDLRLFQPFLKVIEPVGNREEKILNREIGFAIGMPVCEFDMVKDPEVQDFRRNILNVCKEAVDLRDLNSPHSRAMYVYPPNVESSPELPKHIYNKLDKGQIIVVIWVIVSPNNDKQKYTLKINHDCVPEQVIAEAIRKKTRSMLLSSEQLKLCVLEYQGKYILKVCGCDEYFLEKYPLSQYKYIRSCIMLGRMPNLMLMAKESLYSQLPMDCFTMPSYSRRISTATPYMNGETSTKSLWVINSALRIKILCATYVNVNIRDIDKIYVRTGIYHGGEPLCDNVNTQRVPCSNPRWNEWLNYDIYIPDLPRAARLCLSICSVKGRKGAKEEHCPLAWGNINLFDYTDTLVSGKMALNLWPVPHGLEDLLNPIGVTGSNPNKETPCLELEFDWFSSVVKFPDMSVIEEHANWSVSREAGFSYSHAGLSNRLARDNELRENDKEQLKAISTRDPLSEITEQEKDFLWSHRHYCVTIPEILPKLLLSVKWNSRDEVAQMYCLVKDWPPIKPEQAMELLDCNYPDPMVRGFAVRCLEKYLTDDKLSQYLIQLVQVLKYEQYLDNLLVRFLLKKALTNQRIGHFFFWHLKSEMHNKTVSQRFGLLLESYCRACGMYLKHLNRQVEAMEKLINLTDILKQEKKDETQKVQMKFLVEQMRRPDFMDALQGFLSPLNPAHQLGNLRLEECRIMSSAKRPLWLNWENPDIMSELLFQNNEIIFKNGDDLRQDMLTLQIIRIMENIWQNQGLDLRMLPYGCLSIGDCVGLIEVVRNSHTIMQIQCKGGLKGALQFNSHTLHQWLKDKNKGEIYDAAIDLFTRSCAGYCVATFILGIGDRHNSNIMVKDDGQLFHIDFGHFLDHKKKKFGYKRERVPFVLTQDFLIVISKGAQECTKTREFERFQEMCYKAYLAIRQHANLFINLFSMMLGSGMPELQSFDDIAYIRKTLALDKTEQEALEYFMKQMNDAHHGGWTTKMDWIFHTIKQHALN
PI3K alpha, sequence (P27986 whole entry partner, species assumed, the tested form may be a part): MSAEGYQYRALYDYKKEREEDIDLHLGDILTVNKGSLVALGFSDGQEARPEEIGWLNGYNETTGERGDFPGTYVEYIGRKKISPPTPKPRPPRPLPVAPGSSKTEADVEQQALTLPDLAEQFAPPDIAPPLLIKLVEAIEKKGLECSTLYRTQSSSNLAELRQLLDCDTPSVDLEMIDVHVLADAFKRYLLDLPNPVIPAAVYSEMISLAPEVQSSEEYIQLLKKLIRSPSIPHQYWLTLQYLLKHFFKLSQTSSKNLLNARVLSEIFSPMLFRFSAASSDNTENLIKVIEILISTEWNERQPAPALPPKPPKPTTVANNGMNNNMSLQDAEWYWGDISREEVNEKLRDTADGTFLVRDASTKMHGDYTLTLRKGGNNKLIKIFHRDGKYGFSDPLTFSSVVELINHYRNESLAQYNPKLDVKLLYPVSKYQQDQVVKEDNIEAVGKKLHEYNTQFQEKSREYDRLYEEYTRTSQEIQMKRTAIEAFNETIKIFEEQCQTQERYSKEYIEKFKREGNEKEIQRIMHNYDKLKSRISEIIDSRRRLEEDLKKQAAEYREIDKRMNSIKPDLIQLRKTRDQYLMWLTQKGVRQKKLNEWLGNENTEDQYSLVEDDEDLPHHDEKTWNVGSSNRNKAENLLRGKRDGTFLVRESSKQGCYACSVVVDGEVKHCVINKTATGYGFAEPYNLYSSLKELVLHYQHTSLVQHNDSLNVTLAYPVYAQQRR
T2 sequence (Q04759 whole entry): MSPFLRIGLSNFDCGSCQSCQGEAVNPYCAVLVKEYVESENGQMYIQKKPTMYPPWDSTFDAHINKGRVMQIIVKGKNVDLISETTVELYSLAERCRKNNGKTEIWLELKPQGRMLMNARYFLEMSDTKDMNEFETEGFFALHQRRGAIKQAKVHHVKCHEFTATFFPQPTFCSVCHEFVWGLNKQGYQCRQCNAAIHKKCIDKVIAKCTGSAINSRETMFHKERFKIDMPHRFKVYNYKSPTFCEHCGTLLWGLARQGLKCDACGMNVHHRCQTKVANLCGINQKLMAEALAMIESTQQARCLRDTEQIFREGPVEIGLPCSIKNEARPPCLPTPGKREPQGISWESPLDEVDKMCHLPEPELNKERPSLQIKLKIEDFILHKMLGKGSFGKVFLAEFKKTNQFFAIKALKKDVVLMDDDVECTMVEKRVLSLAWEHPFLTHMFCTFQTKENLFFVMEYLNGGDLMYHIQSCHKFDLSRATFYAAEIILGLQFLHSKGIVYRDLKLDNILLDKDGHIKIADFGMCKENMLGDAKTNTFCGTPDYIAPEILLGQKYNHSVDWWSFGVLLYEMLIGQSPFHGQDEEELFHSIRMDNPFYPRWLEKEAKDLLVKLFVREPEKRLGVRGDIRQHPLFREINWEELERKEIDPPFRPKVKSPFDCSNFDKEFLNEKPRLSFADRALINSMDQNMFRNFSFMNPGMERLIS

| inhibition at 30 µM (PI3K alpha) | inhibition at 30 µM (PI3K gamma) | inhibition at 30 µM (Flag-IKKβ) | IC50 [1] | inhibition at 10 µM (human TOR (FLAG-TOR)) | Structure (SMILES) |
| --- | --- | --- | --- | --- | --- |
| 56% | 12% | 51% | 25.9 µM |  | Cc1noc(C)c1Oc1ncnc2ccccc12 [Example 26, 3,5-Dimethyl-4-(quinazolin-4-yloxy)isoxazole] |
| 33% | 53% |  |  | 12% | c1ccc2c(Oc3cncnc3)ncnc2c1 [Example 31, 4-(Pyrimidin-5-yloxy)quinazoline] |
